Measured values from US9278968B2, “Imidazopyridine compounds” (ASTELLAS PHARMA INC., priority 2012, dated 2016).

Tests used:
[1] = target: human purified sGC (heterodimer of sGCα1 and sGCβ1) (Homo sapiens (Human), UniProt Q02108+Q02153); test: sGC activation test (cGMP produced, HTRF); assay type: biochemical; conditions: maximum activity of Preparation Example 200 compound (maximum 100 μM) taken as 100%; with SNP; read-out: EC50 (concentration giving 50% of maximum activity)
Experimental: The activity of sGC was evaluated by measuring the amount of cGMP produced by human purified sGC.
Using an sGCα 1 gene (NCBI accession No. BC028384.2) and an sGCβ1 gene (NCBI accession No. BC047620.1), an N-terminal FLAG tag-fused sGCα1 and an sGCβ1 expression baculovirus were prepared. These viruses were transfected into insect cells Sf9 (Cat. No. 11496-015, Gibco) to express a protein. From the cell lysates of the insect cells, heterodimers of the N-terminal FLAG tag-fused sGCα1 and sGCβ1 were purified with an M2 Affinity Gel (Sigma-Aldrich, Inc.) to obtain a human sGC.
An Example compound was dissolved in DMSO and diluted 20-fold with ultrapure water. 2 μL of the diluted Example compound solution (maximum concentration of 100 μM), 2 μL of a substrate solution [0.5 μM triethanolamine buffer solution, 0.03 μM dithiothreitol, 0.01 μM GTP, 0.04 μM MgCl2, and 0.03 μM sodium nitroprusside (SNP)], and 6 μL of a human enzyme suspension were added to 384-well plates (manufactured by Greiner Bio-One), and incubated at room temperature for one hour. The measurement of the amount of cGMP was carried out, using an HTRF reagent (Cisbio).
The sGC activation action of the Example compound was calculated as an Example compound concentration which gives 50% of a maximum activity (EC50), in which the maximum activity by the addition of a compound shown in Preparation Example 200, 8-(cyclohexylmethoxy)-N-[(1R)-2-hydroxy-1-phenylethyl]-2-methylimidazo[1,2-a]pyridine-3-carboxamide hydrochloride (maximum 100 μM), is taken as 100%. Further, the maximum activity of sGC with the addition of 8-(cyclohexylmethoxy)-N-[(1R)-2-hydroxy-1-phenylethyl]-2-methylimidazo[1,2-a]pyridine-3-carboxamide hydrochloride is 10-fold or more relative to the sGC activation without the addition of the compound, and it is recognized that the compound has a good sGC activating action. […] The test results of some Example compounds that are the compounds of the formula (I) of the present invention are shown below. Further, in Tables, Ex. represents Example number.

[2] = tested on: hind limb blood flow in rats anesthetized with pentobarbital; test: Blood flow increasing action in vivo (hind limb blood flow, anesthetized rats); set-up: species or system Wistar male rats; conditions: oral, 2 hours after administration, effective when blood flow rate 130% or more of solvent group
Experimental: The hind limb blood flow increasing action in rats anesthetized with pentobarbital was confirmed by the following test method.
Wistar male rats, 11- to 14-week (Japan SLC, Inc.) were used. An administration liquid was prepared by adding N,N-dimethyl formamide, Polyethylene Glycol 400, TWEEN 80, a 0.5% methyl cellulose aqueous solution, a 0.5 M aqueous sodium hydrogen carbonate solution, and 0.1 M hydrochloric acid to the test compound and dissolving the Example compound in an appropriate manner depending on the compound. The prepared administration liquid was orally administered, and 2 hours later, the hind limb blood flow increasing action was evaluated under anesthesia with intraperitoneally administration of 60 mg/kg of pentobarbital The hind limb blood flow was measured using a laser blood flow imaging device (PIM II Integral). By taking the average blood flow rate of a group with the administration of a solvent as 100%, the compound was evaluated to be effective when the blood flow rate was 130% or more by the administration of the compound.

Chain of human purified sGC (heterodimer of sGCα1 and sGCβ1) (Q02108 whole entry): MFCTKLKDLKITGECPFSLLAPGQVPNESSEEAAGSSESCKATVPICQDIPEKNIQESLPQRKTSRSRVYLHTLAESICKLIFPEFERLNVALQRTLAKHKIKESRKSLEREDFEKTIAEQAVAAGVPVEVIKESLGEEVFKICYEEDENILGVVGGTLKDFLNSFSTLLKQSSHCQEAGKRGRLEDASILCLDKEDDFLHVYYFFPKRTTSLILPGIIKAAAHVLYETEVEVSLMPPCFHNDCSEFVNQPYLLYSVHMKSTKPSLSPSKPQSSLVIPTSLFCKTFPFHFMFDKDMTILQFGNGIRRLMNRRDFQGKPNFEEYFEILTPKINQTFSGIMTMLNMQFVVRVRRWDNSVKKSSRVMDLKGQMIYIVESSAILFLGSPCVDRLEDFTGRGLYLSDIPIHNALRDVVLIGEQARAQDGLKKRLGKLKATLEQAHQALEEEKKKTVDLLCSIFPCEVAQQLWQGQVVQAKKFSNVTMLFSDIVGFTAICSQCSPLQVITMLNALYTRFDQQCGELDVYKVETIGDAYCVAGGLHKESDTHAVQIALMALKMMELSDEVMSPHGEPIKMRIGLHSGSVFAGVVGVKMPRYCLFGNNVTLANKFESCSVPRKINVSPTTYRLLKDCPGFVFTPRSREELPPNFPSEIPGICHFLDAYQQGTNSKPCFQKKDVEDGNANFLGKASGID
Chain of human purified sGC (heterodimer of sGCα1 and sGCβ1) (Q02153 whole entry): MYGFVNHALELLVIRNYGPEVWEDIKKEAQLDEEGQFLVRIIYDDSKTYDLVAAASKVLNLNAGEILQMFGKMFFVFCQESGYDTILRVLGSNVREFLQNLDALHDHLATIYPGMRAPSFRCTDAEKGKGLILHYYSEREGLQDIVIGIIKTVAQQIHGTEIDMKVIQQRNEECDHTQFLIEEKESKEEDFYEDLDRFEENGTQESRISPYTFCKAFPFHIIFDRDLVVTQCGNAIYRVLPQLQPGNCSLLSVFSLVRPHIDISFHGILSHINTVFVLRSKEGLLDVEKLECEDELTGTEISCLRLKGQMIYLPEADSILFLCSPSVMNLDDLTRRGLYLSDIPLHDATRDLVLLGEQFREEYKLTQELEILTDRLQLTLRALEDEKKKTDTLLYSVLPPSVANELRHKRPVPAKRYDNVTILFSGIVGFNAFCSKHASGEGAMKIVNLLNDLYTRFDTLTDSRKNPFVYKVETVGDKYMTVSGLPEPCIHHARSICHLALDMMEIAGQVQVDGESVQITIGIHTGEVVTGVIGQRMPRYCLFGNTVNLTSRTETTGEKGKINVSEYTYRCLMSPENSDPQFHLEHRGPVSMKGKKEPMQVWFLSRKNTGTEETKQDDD

## Cc1nc2c(OCc3c(F)cccc3F)cccn2c1C(=O)NCc1ccccc1[C@@H](O)[C@@H](C)O [Example 31]
[1]
  EC50: 4.9 µM
[2]; 3 mg/kg
  hind limb blood flow increasing action: exhibited a blood flow increasing action

## Cc1nc2c(OCc3c(F)cccc3F)cccn2c1C(=O)NC(C)(CO)c1nnc(C(F)(F)F)o1 (stereo not drawn) [Example 91]
[1]
  EC50: 1.5 µM
[2]; 0.3 mg/kg
  hind limb blood flow increasing action: exhibited a blood flow increasing action

## Cc1nc2c(OCc3c(F)cccc3F)cccn2c1C(=O)NC(C)(CO)c1nnn(C)n1 (stereo not drawn) [Example 7a, 8-[(2,6-difluorobenzyl)oxy]-N-[1-hydroxy-2-(2-methyl-2H-tetrazol-5-yl)propan-2-yl]-2-methylimidazo[1,2-a]pyridine-3-carboxamide]
[1]
  EC50: 9.6 µM
[2]; 3 mg/kg
  hind limb blood flow increasing action: exhibited a blood flow increasing action

## Cc1nnc(C(C)(CO)NC(=O)c2c(C)nc3c(OCc4c(F)cccc4F)cccn23)o1 (stereo not drawn) [Example 35]
[1]
  EC50: 6.4 µM
[2]; 0.3 mg/kg
  hind limb blood flow increasing action: exhibited a blood flow increasing action

## Cc1nc2c(OCc3c(F)cccc3F)cccn2c1C(=O)N[C@@](C)(CO)c1ccccn1 [Example 11]
[1]
  EC50: 1.3 µM
[2]; 1 mg/kg
  hind limb blood flow increasing action: exhibited a blood flow increasing action

## CCn1nnc([C@H](CO)NC(=O)c2c(C)nc3c(OCc4c(F)cccc4F)cccn23)n1 [Example 81]
[1]
  EC50: 16 µM
[2]; 1 mg/kg
  hind limb blood flow increasing action: exhibited a blood flow increasing action

## Cc1nc2c(OCc3c(F)cccc3F)cccn2c1C(=O)N[C@@](C)(CO)c1ncc(CO)s1 [Example 19]
[1]
  EC50: 3.6 µM
[2]; 1 mg/kg
  hind limb blood flow increasing action: exhibited a blood flow increasing action

## Cc1cnc([C@](C)(CO)NC(=O)c2c(C)nc3c(OCc4c(F)cccc4F)cccn23)s1 [Example 77]
[1]
  EC50: 1.3 µM
[2]; 0.3 mg/kg
  hind limb blood flow increasing action: exhibited a blood flow increasing action

## Cc1nc2c(OCc3c(F)cccc3F)cccn2c1C(=O)NC(CO)(CO)c1ccc(Cl)cn1 [Example 70]
[1]
  EC50: 3.8 µM
[2]; 1 mg/kg
  hind limb blood flow increasing action: exhibited a blood flow increasing action

## Cc1cnc([C@@]2(NC(=O)c3c(C)nc4c(OCc5c(F)cccc5F)cccn34)C[C@@H](O)[C@@H](O)C2)s1 [Example 69]
[1]
  EC50: 4.6 µM
[2]; 3 mg/kg
  hind limb blood flow increasing action: exhibited a blood flow increasing action

## Cc1nc2c(OCc3c(F)cccc3F)cccn2c1C(=O)N[C@@H](CO)c1nnn(C(F)F)n1 [Example 83]
[1]
  EC50: 2.7 µM
[2]; 1 mg/kg
  hind limb blood flow increasing action: exhibited a blood flow increasing action

## Cc1nc2c(OCc3c(F)cccc3F)cccn2c1C(=O)N[C@@](C)(CO)c1ccccc1F [Example 18]
[1]
  EC50: 1.6 µM
[2]; 1 mg/kg
  hind limb blood flow increasing action: exhibited a blood flow increasing action

## Cc1nc2c(OCc3c(F)cccc3F)cccn2c1C(=O)NC(C)(CO)c1nnn(C(F)F)n1 (stereo not drawn) [Example 6, 8-[(2,6-difluorobenzyl)oxy]-N-{2-[2-(difluoromethyl)-2H-tetrazol-5-yl]-1-hydroxypropan-2-yl}-2-methylimidazo[1,2-a]pyridine-3-carboxamide]
[1]
  EC50: 1.7 µM
[2]; 0.1 mg/kg
  hind limb blood flow increasing action: exhibited a blood flow increasing action

## Cc1nc2c(OCc3c(F)cccc3F)cccn2c1C(=O)N[C@@](C)(CO)c1ccc(CO)cc1 (stereo in doubt) [Example 107a, 8-[(2,6-difluorobenzyl)oxy]-N-{1-hydroxy-2-[4-(hydroxymethyl)phenyl]propan-2-yl}-2-methylimidazo[1,2-a]pyridine-3-carboxamide]
[1]
  EC50: 1.5 µM
[2]; 3 mg/kg
  hind limb blood flow increasing action: exhibited a blood flow increasing action

## Cc1nc2c(OCc3c(F)cccc3F)cccn2c1C(=O)NC(C)(CO)c1nnn(C2CC2)n1 (stereo not drawn) [Example 76]
[1]
  EC50: 5.8 µM
[2]; 3 mg/kg
  hind limb blood flow increasing action: exhibited a blood flow increasing action

## CCc1nnc(C(C)(CO)NC(=O)c2c(C)nc3c(OCc4c(F)cccc4F)cccn23)o1 (stereo not drawn) [Example 1, 8-[(2,6-difluorobenzyl)oxy]-N-[2-(5-ethyl-1,3,4-oxadiazol-2-yl)-1-hydroxypropan-2-yl]-2-methylimidazo[1,2-a]pyridine-3-carboxamide]
[1]
  EC50: 5.5 µM
[2]; 1 mg/kg
  hind limb blood flow increasing action: exhibited a blood flow increasing action

## Cc1nc2c(OCc3c(F)cccc3F)cccn2c1C(=O)N[C@@](C)(CO)c1nnn(C)n1 (stereo in doubt) [Example 108a, 8-[(2,6-difluorobenzyl)oxy]-N-[1-hydroxy-2-(2-methyl-2H-tetrazol-5-yl)propan-2-yl]-2-methylimidazo[1,2-a]pyridine-3-carboxamide]
[1]
  EC50: 4.6 µM
[2]; 0.3 mg/kg
  hind limb blood flow increasing action: exhibited a blood flow increasing action

## Cc1nc2c(OCc3c(F)cccc3F)cccn2c1C(=O)N[C@]1(c2ccccn2)C[C@@H](O)[C@@H](O)C1 [Example 67]
[1]
  EC50: 24 µM
[2]; 3 mg/kg
  hind limb blood flow increasing action: exhibited a blood flow increasing action

## Cc1csc(C(C)(CO)NC(=O)c2c(C)nc3c(OCc4c(F)cccc4F)cccn23)n1 (stereo not drawn) [Example 40]
[1]
  EC50: 3.8 µM
[2]; 3 mg/kg
  hind limb blood flow increasing action: exhibited a blood flow increasing action

## Cc1nc2c(OCc3c(F)cccc3F)cccn2c1C(=O)NC(C)(C)c1cccc(C(N)=O)c1 [Example 80]
[1]
  EC50: 7.1 µM

## Cc1nnc(C(C)(CO)NC(=O)c2c(C)nc3c(OCC4CCCCC4)cccn23)o1 (stereo not drawn) [Example 84]
[1]
  EC50: 7.1 µM

## Cc1nc2c(OCc3c(F)cccc3F)cccn2c1C(=O)N[C@@H](CO)c1nnn(C)n1 [Example 26]
[1]
  EC50: 24 µM

## Cc1nc2c(OCc3c(F)cccc3F)cccn2c1C(=O)NCc1cccnc1[C@@H](O)[C@@H](C)O (racemic) [Example 89]
[1]
  EC50: 11 µM

## Cc1nc2c(OCc3c(F)cccc3F)cccn2c1C(=O)NCc1ccncc1[C@@H](O)[C@@H](C)O (racemic) [Example 90]
[1]
  EC50: 9.8 µM

## Cc1nc2c(OCc3c(F)cccc3F)cccn2c1C(=O)N[C@]1(c2ccccc2)CC[C@H](O)[C@H]1O (racemic) [Example 28]
[1]
  EC50: 13 µM

## Cc1nc2c(OCc3c(F)cccc3F)cccn2c1C(=O)NC(CO)(CO)c1cccc(F)c1 [Example 55]
[1]
  EC50: 2 µM

## Cc1nc2c(OCc3c(F)cccc3F)cccn2c1C(=O)NCc1ccccc1C(O)CO (stereo not drawn) [Example 5, 8-[(2,6-difluorobenzyl)oxy]-N-[2-(1,2-dihydroxyethyl)benzyl]-2-methylimidazo[1,2-a]pyridine-3-carboxamide]
[1]
  EC50: 6.4 µM

## Cc1nc2c(OCc3c(F)cccc3F)cccn2c1C(=O)NCc1ccccc1[C@H](O)[C@@H](C)O [Example 33]
[1]
  EC50: 7.4 µM

## Cc1nc2c(OCc3ccccc3F)cccn2c1C(=O)NC(C)(CO)c1ccc(CO)cc1 (stereo not drawn) [Example 51]
[1]
  EC50: 12 µM

## Cc1nc2c(OCc3ncccc3F)cccn2c1C(=O)N[C@@](C)(CO)c1ccccc1F [Example 23]
[1]
  EC50: 9.8 µM

## Cc1nc2c(OCc3c(F)cccc3F)cccn2c1C(=O)NCc1ccccc1[C@@H](O)[C@H](C)O [Example 32]
[1]
  EC50: 8.2 µM

## Cc1nnc([C@H](CO)NC(=O)c2c(C)nc3c(OCc4c(F)cccc4F)cccn23)o1 [Example 42]
[1]
  EC50: 33 µM

## Cc1nc2c(OCc3c(F)cccc3F)cccn2c1C(=O)NC(C)(CO)c1cnn(C)c1C (stereo not drawn) [Example 93]
[1]
  EC50: 21 µM

## Cc1nc2c(OCc3c(F)cccc3F)cccn2c1C(=O)N[C@@H](C)c1ccccc1[C@@H](O)CO (stereo in doubt) [Example 59]
[1]
  EC50: 1.9 µM

## Cc1nc2c(OCC3CCCCC3)cccn2c1C(=O)NC(C)(CO)c1nnn(C)n1 (stereo not drawn) [Example 73a]
[1]
  EC50: 6.4 µM
